Measurements taken from patent US12544348B2, “Methods for treating APOE4/4-associated disorders” (The Regents of the University of California, priority 2018, dated 2026).

What was measured:
[1] = test system: hippocampal cells of apoE4-KI mice; assay: Single-nucleus RNA-seq of hippocampus of apoE4-KI mice; assay type: in vivo
Procedure: Single-Nucleus RNA-Seq Library Preparation and Sequencing. Twelve-month-old apoE3-KI and apoE4-KI mice received daily i.p. injections of vehicle or bumetanide (0.2 mg/kg body weight) for 60 days. […] Mouse hippocampi were acutely dissected on ice. Dissected hippocampi were placed in 2 mL Hibernate A®/B27®/GlutaMAX™ (HEB) medium in a 5 mL tube. The HEB medium was removed to a 15 mL conical and kept on ice. 2 mL of chilled lysis buffer (10 mM Tris-HCl, 10 mM NaCl, 3 mM MgCl2, and 0.1% Nonidet™ P40 Substitute in Nuclease-Free Water) were added to the tissue, and the hippocampi were homogenized by suctioning 10× through a 21G needle. After homogenization, the tissue was lysed on ice for 15 min, swirling 2-3×during this incubation period. The reserved chilled HEB media was then returned to the lysed tissue solution, and the tissue was further triturated with 5-7 passes through a 1 mL pipette. A 30 μm cell strainer (MACS SmartStrainer; Miltenyi Biotech 130-110-915) was washed with 1 mL of PBS, and the lysed tissue solution was filtered through the strainer to remove debris and clumps. Filtered nuclei were centrifuged at 500 ref for 5 min at 4° C. […]
Single-Nucleus RNA-Seq Alignment, Clustering and Cell Type Identification. […] Reads from each sample were aligned to this genome and aggregated using the 10×Cellranger pipeline with no modifications. […] Genes with detected expression in at least 3 nuclei, and nuclei with at least 200 detected genes and a maximum of 2400 were retained for analysis for a total of Nuclei with a mitochondrial percentage of less than 0.0025 were retained for future analysis for a total of 27,415 cells. Highly variable genes were calculated via the FindVariableGenes function with the parameters: x.low.cutoff=0.0123, x.high.cutoff =3, y.cutoff=0.5 for a total of 2578 highly variable genes. […] PCAElbow Plot was used to plot the cumulative standard deviations of each principal component the significance of the association of each gene with each principal component was assessed via the JackStraw and JackStrawPlot function. […]

[2] = test system: hippocampus of apoE4-KI mice; assay: RNA-Seq analysis of hippocampal tissue of apoE4-KI mice; assay type: in vivo
Procedure: RNA-Seq analysis of hippocampal tissue. Twelve-month-old apoE3-KI and apoE4-KI mice received daily i.p. injections of vehicle or bumetanide (0.2 mg/kg body weight) for 60 days. Mice were perfused with 0.9% saline, and the hippocampus was dissected and homogenized in Trizol reagent. Total RNA was extracted and purified with the Qiagen RNeasy Micro kit, which included a DNase treatment. cDNA was generated from full-length RNA (50 ng per sample) with the NuGEN RNA-Seq V2 kit, which uses the single primer isothermal amplification method to deplete ribosomal RNA, and sheared by Covaris to yield fragments of uniform size. The NuGen Ultralow system V2 was used for adding adapters and for barcoding and amplification. The resulting RNA libraries were purified with Agencourt XP magnetic beads, and quantified by qPCR after quality control with an Agilent Bioanalyzer. The libraries were pooled and sequenced with a HiSeq 4000 instrument (Illumina) for single-end (SE50) sequencing. Sequence data were aligned with the STAR short read aligner^33 and counts per feature were obtained with the feautureCounts function from the Subread package^34. After alignment, transcripts not shared in the GSE15222 and Syn3157255-MayoEGWAS databases were discarded, as were genes with less than one count per million in two or more samples^35.
The DESeq pipeline was used to assess DE of the remaining 11,877 transcripts. Genes below a P value of 0.05 were considered DE for future pathway analysis. After count normalization with DESeq, data were rld transformed (vsn package), and clustering was done on the DE genes with the pheatmap package. PCA was applied to the rld-transformed DE genes. The DE signatures of drugs were analyzed with Ingenuity Pathway Analysis software. Ontology analysis was done using the reference set from the Ingenuity Knowledge Base including direct and indirect gene relationships. For analysis of rank changes of apoE-genotype-specific signature genes of AD, the raw count data from the 11,877 transcripts were rank transformed, and for each gene the average rank of vehicle-treated samples was subtracted from that of bumetanide-treated samples.

With `CCCCNc1cc(C(=O)O)cc(S(N)(=O)=O)c1Oc1ccccc1` [bumetanide, 3-(butylamino)-4-phenoxy-5-sulfamoylbenzoic acid] the “number of those pathways also enriched in apoE4/4-mediated AD in humans” value ([1]; 0.2 mg/kg daily i.p. 8 weeks) was 19, the “number of cell types (of 18 clusters) in which apoE4/4 AD signature genes were flipped” value ([1]; 0.2 mg/kg daily i.p. 8 weeks, P<0.05 Monte Carlo) was 12 and the “number of ontological pathways enriched in at least one neuronal cell type with significant flip” value ([1]; p<0.005, 0.2 mg/kg daily i.p. 8 weeks) was 104. For the same compound, the “number of significantly perturbed pathways (Ingenuity Pathway Analysis)” value ([2]; DE genes P<0.05, apoE4-KI mouse hippocampus, 0.2 mg/kg i.p. 8 weeks) was 71, the “number of enriched pathways shared with apoE4/4 AD in humans” value ([2]; apoE4-KI mouse hippocampus, 0.2 mg/kg i.p. 8 weeks) was 6 and the “mean change in expression rank of genes downregulated in apoE4/4 AD (n=56)” value ([2]; apoE4-KI mouse hippocampus, 0.2 mg/kg i.p. 8 weeks vs vehicle) was “not significantly shifted away from zero”. For the same compound, the “average change in expression rank of the 157 genes upregulated in apoE4/4 human AD” value ([2]; apoE4-KI mouse hippocampus, 0.2 mg/kg i.p. 8 weeks vs vehicle, mean of all genes zero, P<0.001 Monte Carlo, shift toward lower expression) was 49.76.
